Laboratory results: US20030104079A1, “Skin tissue regeneration promoters comprising ginsenoside Rb1” (Japan Science and Technology Corporation, Japan, priority 2000, published 2003)

Assays:
[1] = system: cultured nerve cells (neurons); conditions: same SNP culture system, Japanese Patent Appln. No. Hei 10-365560; cited from earlier work
[2] = system: morsus of human oral mucosa; assay: Therapy of morsus of human oral mucosa by external application; format: in vivo; conditions: propet containing 0.00001% by weight
Description: Next, one of the present inventors had confirmed by themself whether or not propet containing low concentration of ginsenoside Rb1 was effective to morsus of mouth or oral mucosa. On May 2nd, 2000, at about 2:00 p.m. after dental treatment, […] had started to have late lunch before waking up from infiltration anesthesia of the left third branch of the trigeminal nerve and periodontal anesthesia due to heavy hunger. They had bitten themself three times their own left lip mucosa and since they felt iron taste (blood) in their oral cavity, as a result of confirmation of their morsus by a mirror, they found at least five regions of erosion or defect of mouth or oral mucosa, further hematocele or hematoma was found at one spot. Since they concluded that if it (i.e. morsus of oral mucosa) was allowed to leave as it is, aphthous stomatitis would be complicated within several days to require a week to ten days for complete cure, propet containing a low concentration (0.00001% by weight) of ginsenoside Rb1, which had been confirmed to show effectiveness and efficacy by animal experiments of the present inventors, was applied with small amount to the five regions with erosion or defect of oral mucosa and one hematocele or hematoma region. External or topical application was performed before and after meal and before and after eating between meals. The external or topical application was performed after tooth brushing was performed as much as possible after the meal. Namely, propet containing 0.00001% by weight of ginsenoside Rb1 was applied externally or topically onto morsus regions of the labial mucosa separately 6-10 times a day. FIG. 7 is a photograph in place of drawing.
Next, one of inventors of the present invention (Sakanaka) had bitten again left lower labial mucosa on May 26, 2000 during lunch, and propet containing 0.00001% by weight of ginsenoside Rb1 was applied topically or externally onto the morsus region. A photograph just after morsus is shown in left of FIG. 8, and a photograph at 72 hours after morsus is shown in right of FIG. 8.
Next, one of the present inventors had confirmed by themself whether propet containing low concentrations of ginsenoside Rb1 was effective for morsus of mouth mucosa or not. On May 2nd, 2000, at about 2:00 p.m. after dental treatment, […] had started to have late lunch before awakening from infiltration anesthesia of the left third division of the trigeminal nerve and periodontal anesthesia due to heavy hunger. They had bitten themself three times their own left lip mucosa and they felt iron taste (blood) in their oral cavity. As a result of confirmation of their morsus by a mirror, they found at least five regions of erosion or defect of mouth mucosa, further hematoma was found at one spot. Since they concluded that if the morsus was allowed to leave as it was, aphthous stomatitis would be developed as a complication to require a week to ten days for complete cure, a small amount of propet containing a low concentration (0.00001% by weight) of ginsenoside Rb1, which had been confirmed to show effectiveness and efficacy by animal experiments of the present inventors, was topically or externally applied to the five regions with erosion or defect of oral mucosa and to one hematoma region. External or topical application was performed before and after meal and before and after eating between meals. […]

[3] = system: open wound of skin; assay: Open wound (skin defect) healing by intravenous infusion after punch biopsy; format: in vivo, Wistar rats; conditions: vs physiological saline
Experimental: We have examined whether intravenous administration of ginsenoside Rb1 at low dosages or low doses can promote regeneration and/or reconstruction of skin tissue in diseases with defect of skin tissue (bedsore, skin ulcer, burn, frostbite, radiation injury, open wound, ultraviolet injury, electric injury, etc.). For that purpose, for example, by using male Wistar rats (body weight about 300 g), punch biopsy with diameter 6 mm was performed in the dorsal skin region of animals under inhalation anesthesia to prepare open wound, and the animals were allowed to leave as they were. About 1 hour later, ginsenoside Rb1 (12 μg) dissolved in physiological saline was once administered intravenously, then ginsenoside Rb1 was continuously infused intravenously for 7 days by using an Alza osmotic minipump (12 μg/day).
An equal amount of physiological saline was administered intravenously in the control animals, for which the same open wound was made to leave the animals as they were.
On day 2 after finishing continuous intravenous administration of ginsenoside Rb1 or physiological saline, the animals were anesthetized with pentobarbital and fixed transcardialy with perfusion of 0.1 M phosphate buffer containing 4% paraformaldehyde. Thereafter, the skin tissue including the open wound was dissected out, post-fixed and embedded in paraffin. […]

CC(C)=CCC[C@](C)(O[C@@H]1O[C@H](CO[C@@H]2O[C@H](CO)[C@@H](O)[C@H](O)[C@H]2O)[C@@H](O)[C@H](O)[C@H]1O)[C@H]1CC[C@]2(C)[C@@H]1[C@H](O)C[C@@H]1[C@@]3(C)CC[C@H](O[C@@H]4O[C@H](CO)[C@@H](O)[C@H](O)[C@H]4O[C@@H]4O[C@H](CO)[C@@H](O)[C@H](O)[C@H]4O)C(C)(C)[C@@H]3CC[C@]12C [ginsenoside Rb1]
extracellular fluid concentration that inhibits apoptosis or apoptosis-like cell death of nerve cells [1]: ≤ 1 ng/mL | pain in the wounded regions [2]: markedly reduced | epithelization of morsus regions of labial mucosa (FIG. 7) ([2]; 6-10 times a day, 96 hours after morsus, one person): almost complete epithelization | complication of aphthous stomatitis after morsus ([2]; first case): no complication of aphthous stomatitis was observed | cure of morsus (FIG. 8) ([2]; second case, 72 hours after morsus): rapidly cured without developing aphthous stomatitis as a complication | time in which morsus (wound) healing is markedly promoted ([2]; such morsus usually requires at least 7 to 10 days): ≤ 96 h | scar or granulation formation in open wound (HE histology, FIG. 2) ([3]; 12 μg once then 12 μg/day continuous iv for 7 days after 6 mm punch biopsy): scar or granulation formation was obviously little | epithelization of open wound (FIG. 2) ([3]; 12 μg/day continuous iv for 7 days after 6 mm punch biopsy): sufficient epithelization occurred
